Data set [1] relates to Meloidogyne incognita. Put plainly: Meloidogyne incognita test, comparative examples (soil drench, lettuce). It counts as in vivo. As to conditions: 504 h, MELGIN, 21dat. The method, then:
Meloidogyne incognita Test [table] To produce a suitable active compound preparation, 1 part by weight of active compound is mixed with the specified amounts of solvent and emulsifier, and the concentrate is diluted with water to the desired concentration, it being necessary to include the volume of soil which is drenched in the calculation. It should be ensured that a concentration of 20 ppm of emulsifier in the soil is not exceeded. To produce further test concentrations, water is used for dilution. Pots filled with soil (loamy sand) are watered with the active compound solution. An egg/larvae suspension of the southern root-knot nematode (Meloidogyne incognita) is added, lettuce seeds are scattered over the surface of the soil, and they are covered over with quartz sand. The lettuce seeds germinate and the plants develop. The galls develop on the roots. After 21 days, the nematicidal efficacy in % is determined by the formation of galls. 100% means that no galls have been found; 0% means that the number of galls on the treated plants corresponds to the untreated control.

The nature of data set [2]: log P by HPLC on reversed-phase column (C18), EEC Directive 79/831 Annex V.A8. It counts as physicochemical. The method, then:
The log P values were determined according to EEC Directive 79/831 Annex V.A8 by HPLC (high-performance liquid chromatography) on a reversed-phase column (C18). Temperature 43° C. The calibration is effected with unbranched alkan-2-ones (having 3 to 16 carbon atoms), for which the log P values are known. Here, the terms acidic and neutral are defined analogously to the definitions below for the determination of M^+. The determination of the M^+ by LC-MS in the acidic range was carried out at pH 2.7 using the mobile phases 0.1% aqueous formic acid and acetonitrile (contains 0.1% formic acid); linear gradient from 10% acetonitrile to 95% acetonitrile, instrument: Agilent 1100 LC system, Agilent MSD system, HTS PAL. The determination of the M^+ by LC-MS in the neutral range was carried out at pH 7.8 using the mobile phases 0.001 molar aqueous ammonium bicarbonate solution and acetonitrile; linear gradient from 10% acetonitrile to 95% acetonitrile.

The test system of data set [3] is Meloidogyne incognita. Put plainly: Meloidogyne incognita test (sand, lettuce, gall formation). It counts as in vivo. Particulars: Meloidogyne incognita, 336 h, 20 ppm, after 14 days; read-out: nematicidal efficacy (formation of galls). In short, it runs like this: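 Vessels held sand, diluted compound solution, M. incognita egg/larvae suspension and lettuce seeds, and the plants grew for 14 days. Efficacy in % came from root gall formation: 100% means no galls, 0% means galls equal to the untreated control.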

Data set [4] relates to Myzus persicae. Description: Myzus persicae spray test (Chinese cabbage leaf discs). It counts as in vivo. As to conditions: foliar, 144 h, 500 g/ha, after 6 days, read-out: efficacy. The method, then:
Myzus persicae—Spray Test [table] To produce a suitable active compound preparation, 1 part by weight of active compound is dissolved with the specified parts by weight of solvent and made up to the desired concentration with water containing an emulsifier concentration of 1000 ppm. To produce further test concentrations, the formulation is diluted with emulsifier-containing water. Discs of Chinese cabbage leaves (Brassica pekinensis) infested by all stages of the green peach aphid (Myzus persicae) are sprayed with an active compound preparation of the desired concentration. After 6 days, the efficacy in % is determined. 100% means that all the aphids have been killed; 0% means that no aphids have been killed.

Another data set deals with Tetranychus urticae. Put plainly: Tetranychus urticae spray test, OP-resistant. The data set is classed as in vivo. Particulars: foliar, 144 h, bean leaf discs, after 6 days, read-out: efficacy. The method, then: Tetranychus urticae—Spray Test, OP-Resistant
To produce a suitable active compound preparation, 1 part by weight of active compound is dissolved with the specified parts by weight of solvent and made up to the desired concentration with water containing an emulsifier concentration of 1000 ppm. To produce further test concentrations, the formulation is diluted with emulsifier-containing water.
Discs of bean leaves (Phaseolus vulgaris) infested with all stages of the greenhouse red spider mite (Tetranychus urticae) are sprayed with an active compound preparation of the desired concentration.
After 6 days, the efficacy in % is determined. 100% means that all the spider mites have been killed; 0% means that no spider mites have been killed.

Data set [5] has as its system Myzus persicae. Description: Myzus persicae oral test. It counts as in vivo. As to conditions: 120 h, 20 ppm, after 5 days, read-out: efficacy. The method, then: Myzus persicae—Oral Test [table] To produce a suitable active compound preparation, 1 part by weight of active compound is dissolved with the stated parts by weight of solvent and made up to the desired concentration with water. 50 μl of the active compound preparation are transferred into microtitre plates and made up to a final volume of 200 μl with 150 μl of IPL41 insect medium (33%+15% sugar). Subsequently, the plates are sealed with parafilm, which a mixed population of green peach aphids (Myzus persicae) within a second microtitre plate is able to puncture and imbibe the solution through it. After 5 days, the efficacy in % is determined. 100% means that all the aphids have been killed; 0% means that no aphids have been killed.

In another data set the test system is Boophilus microplus. Description: Boophilus microplus injection test. Particulars: 20 μg/animal, after 7 days. It counts as in vivo. The method, then: Boophilus microplus—Injection Test Solvent: dimethyl sulfoxide To produce a suitable active compound preparation, 10 mg of active compound are mixed with 0.5 ml of solvent and the concentrate is diluted to the desired concentration with solvent. 1 μl of the active compound solution is injected into the abdomen of 5 engorged adult female cattle ticks (Boophilus microplus). The animals are transferred into dishes and kept in a climate-controlled room. Efficacy is assessed after 7 days by laying of fertile eggs. Eggs which are not visibly fertile are stored in a climate-controlled cabinet until the larvae hatch after about 42 days. An efficacy of 100% means that none of the ticks has laid any fertile eggs; 0% means that all the eggs are fertile.

[6] abbreviates: reversed-phase C18 HPLC column, pH 2.7, HCOOH (formic acid mobile phase), 43° C., read-out: log P (HCOOH).
Where [7] appears, read: reversed-phase C18 HPLC column, neutral range, pH 7.8, aqueous ammonium bicarbonate/acetonitrile, 43° C., read-out: log P (neutral).
Where [8] appears, read: reversed-phase C18 HPLC column, acidic range, pH 2.7, 0.1% aqueous formic acid/acetonitrile, 43° C., read-out: log P (acidic).

SMILES strings stand for the structures. Like-named read-outs stand apart in the source and are kept apart here.

The record followed here is patent publication US10820591B2, “Substituted sulfonyl amides for controlling animal pests” (Bayer Aktiengesellschaft, priority 2016, dated 2020).

`COc1ccc(Cl)c(S(=O)(=O)NC(=O)c2cc3cc(Cl)cc(Cl)n3n2)c1`: in the data set on Meloidogyne incognita [1], the nematode control efficacy (%) at 1 ppm came out at 0%.

The compound `COc1ccc(Cl)c(S(=O)(=O)NC(=O)c2cc3c(Cl)cc(C(F)(F)F)cn3n2)c1` displayed a nematode control efficacy (%) at 8 ppm in the data set on Meloidogyne incognita [1] of 30%.

For `COc1ccc(Cl)c(S(=O)(=O)NC(=O)c2cn3cc(C(F)(F)F)cc(Cl)c3n2)c1`, the nematode control efficacy (%) at 0.5 ppm in the data set on Meloidogyne incognita [1] worked out at 55%.

Compound `O=C(O)c1cn(Cc2c(F)cccc2F)cn1` [1-(2,6-difluorobenzyl)-1H-imidazole-4-carboxylic acid] registered a chromatographic logP in data set [2] (pH 2.7) of 0.42.

Consider `Cc1nc(C(=O)O)cn1-c1ccccc1Cl` [1-(2-chlorophenyl)-2-methyl-1H-imidazole-4-carboxylic acid], for which the chromatographic logP in data set [2] (setting [6]) is 0.67; in data set [2] (setting [7]), -0.01.

`Cc1nc(C(=O)NS(=O)(=O)c2ccccc2Cl)cn1-c1ccccc1Cl` [1-(2-chlorophenyl)-N-[(2-chlorophenyl)sulfonyl]-2-methyl-1H-imidazole-4-carboxamide]: in data set [2] (setting [7]), the chromatographic logP was determined as 0.85.

For `O=C(O)c1nc(Br)n(CCC(F)(F)F)c1Br` [2,5-dibromo-1-(3,3,3-trifluoropropyl)-1H-imidazole-4-carboxylic acid], the chromatographic logP in data set [2] (pH 2.7) was 1.49.

Regarding `O=C(NS(=O)(=O)c1ccccc1Cl)c1nc(Br)n(CCC(F)(F)F)c1Br` [2,5-dibromo-N-[(2-chlorophenyl)sulfonyl]-1-(3,3,3-trifluoropropyl)-1H-imidazole-4-carboxamide], the chromatographic logP in data set [2] (setting [6]) came to 2.99.

`CCCn1cnc(C(=O)O)c1Cl` [5-chloro-1-propyl-1H-imidazole-4-carboxylic acid] registered a chromatographic logP in data set [2] (pH 2.7) of 0.6.

On to `CCCn1cnc(C(=O)NS(=O)(=O)c2ccc(OC)cc2)c1Cl` [5-chloro-N-[(4-methoxyphenyl)sulfonyl]-1-propyl-1H-imidazole-4-carboxamide], for which, in data set [2] (setting [7]), the chromatographic logP amounted to 0.56.

As to `O=C(NS(=O)(=O)Cc1ccccc1Cl)c1ncn(CCC(F)(F)F)c1Cl` [I-085], the pest or weed control at 20 ppm with Meloidogyne incognita [3] came to 90%. For the same compound, the pest or weed control at 500 g/ha with Myzus persicae [4] and in the data set on Tetranychus urticae was 70% throughout.

Consider `COc1ccc(Cl)c(S(=O)(=O)NC(=O)c2nc(Cl)n(-c3cc(Cl)cc(Cl)c3)c2Cl)c1` [I-113], for which the pest or weed control at 20 ppm in the data set with Meloidogyne incognita [3] was 100%. In the data set on Meloidogyne incognita [1], this compound showed a nematode control efficacy (%) at 0.5 ppm of 100%.

As to `CC(C)S(=O)(=O)NC(=O)c1cn(C)c(Cc2ccc(Cl)cc2)n1` [I-122], in the data set with Meloidogyne incognita [3], the pest or weed control at 20 ppm turned out to be 90%. The figures for the pest or weed control at 500 g/ha with Myzus persicae [4] and with Tetranychus urticae were 90% and 100%, respectively.

As for `COc1ccc(Cl)c(S(=O)(=O)NC(=O)c2cc(-c3cc(Cl)cc(Cl)c3)n(C)n2)c1` [I-137], the pest or weed control at 20 ppm in the data set with Meloidogyne incognita [3] came to 100%. This compound yielded a nematode control efficacy (%) at 1 ppm in the data set on Meloidogyne incognita [1] of 85%.

For the compound `COc1ccc(Cl)c(S(=O)(=O)NC(=O)c2cc(-c3cc(Cl)cc(C(F)(F)F)c3)n(C)n2)c1` [I-141], the pest or weed control at 20 ppm with Meloidogyne incognita [3] was determined as 90%. In addition, the nematode control efficacy (%) at 8 ppm with Meloidogyne incognita [1] came out at 99%.

For `Cc1nc(C(=O)NS(=O)(=O)c2ccccc2Cl)cn1Cc1ccc(Cl)cc1` [I-170], the pest or weed control at 20 ppm was found to be 100% with Meloidogyne incognita [3] and 90% with Myzus persicae [5]. Moreover, the pest or weed control at 500 g/ha with Tetranychus urticae worked out at 90%.

Consider `Cc1nc(C(=O)NS(=O)(=O)c2ccccc2)cn1Cc1ccccc1Cl` [I-171], for which, in the data set with Meloidogyne incognita [3], the pest or weed control at 20 ppm stood at 100%. Further, the pest or weed control at 500 g/ha amounted to 70% in the data set on Myzus persicae [4] and 90% in the data set on Tetranychus urticae.

With `Cc1nc(C(=O)NS(=O)(=O)c2ccccc2)cn1-c1cccc(Cl)c1Cl` [I-268], the “efficacy (laying of fertile eggs)” value with Boophilus microplus was found to be 80%. Besides, the values for the pest or weed control at 20 ppm in the data set on Meloidogyne incognita [3] and in the data set with Myzus persicae [5] were 100% and 90%, respectively. Besides, the pest or weed control at 500 g/ha in the data set with Myzus persicae [4] is 90%.

In the case of `Cc1cc(C)cc(-n2cnc(C(=O)NS(=O)(=O)c3ccccc3)c2)c1` [I-284], the “efficacy (laying of fertile eggs)” value in the data set with Boophilus microplus was found to be 100%. Further, the pest or weed control at 20 ppm with Meloidogyne incognita [3] was determined as 70%; with Myzus persicae [5], 100%.

Turning to `COc1ccc(Cl)c(S(=O)(=O)NC(=O)c2nc(Cl)n(C3CC3C(F)(F)F)c2Cl)c1` (stereo not drawn) [I-470], in the data set with Meloidogyne incognita [3], the pest or weed control at 20 ppm was determined as 100%. The compound further yielded a nematode control efficacy (%) at 0.5 ppm in the data set with Meloidogyne incognita [1] of 100%.

As for `Cn1nc(C(=O)NS(=O)(=O)c2cc(Cl)ccc2Cl)cc1-c1cccc(C(F)(F)F)c1` [N-[(2,5-dichlorophenyl)sulfonyl]-1-methyl-5-[3-(trifluoromethyl)phenyl]-1H-pyrazole-3-carboxamide], the chromatographic logP in data set [2] (setting [8]) worked out at 3.84.

Consider `COc1ccc(Cl)c(S(=O)(=O)NC(=O)c2cn(Cc3c(F)cccc3F)cn2)c1` [N-[(2-chloro-5-methoxyphenyl)sulfonyl]-1-(2,6-difluorobenzyl)-1H-imidazole-4-carboxamide], for which the chromatographic logP in data set [2] (setting [8]) was determined as 2.18.

As to `COc1ccc(Cl)c(S(=O)(=O)NC(=O)c2nc(C)n(-c3cc(Cl)cc(Cl)c3)c2F)c1` [N-[(2-chloro-5-methoxyphenyl)sulfonyl]-1-(3,5-dichlorophenyl)-5-fluoro-2-methyl-1H-imidazole-4-carboxamide], the chromatographic logP in data set [2] (setting [8]) was found to be 3.71.

Turning to `CCOC(=O)c1cn(-c2ccccc2Cl)c(C)n1` [ethyl 1-(2-chlorophenyl)-2-methyl-1H-imidazole-4-carboxylate], the chromatographic logP in data set [2] (setting [7]) is 2.06.

As for `CCCn1cnc(C(=O)OCC)c1N` [ethyl 5-amino-1-propyl-1H-imidazole-4-carboxylate], the chromatographic logP in data set [2] (setting [7]) was found to be 0.9.

As for `CCCn1cnc(C(=O)OCC)c1Cl` [ethyl 5-chloro-1-propyl-1H-imidazole-4-carboxylate], the chromatographic logP in data set [2] (setting [7]) stood at 1.7.

As to `COC(=O)c1cn(Cc2c(F)cccc2F)cn1` [methyl 1-(2,6-difluorobenzyl)-1H-imidazole-4-carboxylate], the results for the chromatographic logP in data set [2] (setting [8]) and in data set [2] (setting [7]) were 1.45 and 1.55, respectively.

Regarding `COC(=O)c1cn(CCC(F)(F)F)cn1` [methyl 1-(3,3,3-trifluoropropyl)-1H-imidazole-4-carboxylate], the chromatographic logP in data set [2] (setting [6]) turned out to be 0.87.

Take `COC(=O)c1nc(Br)n(CCC(F)(F)F)c1Br` [methyl 2,5-dibromo-1-(3,3,3-trifluoropropyl)-1H-imidazole-4-carboxylate]: the chromatographic logP in data set [2] (setting [6]) worked out at 2.13.
